Results taken from US20230381142A1, “ANTILEISHMANIAL COMPOUNDS, COMPOSITIONS AND USE THEREOF” (TRUSTEES OF BOSTON UNIVERSITY, priority 2022, published 2023).
Marks after values point to notes of the source that are not given here.

What was measured:
[1] = tested on: L. donovani intracellular amastigotes infecting THP-1 cells; assay: High content intracellular amastigote assay in THP-1 cells (Assay Conditions B; CDIPD screen); type: cell-based, Leishmania donovani; details: 10 μM; THP-1 cells; footnote b
Procedure: (§1) Assay Conditions B: THP-1 cells (human acute monocytic leukemia cell line—ATCC TIB202) were grown in RPMI supplemented with 10% Fetal Bovine Serum (FBS) and 50 μM 2-mercaptoethanol at 37° C. in 5% CO2. THP-1 were seeded in microwell plates at 5×10^5 cells/mL density and treated with 0.1 μM phorbol myristate acetate (PMA, Sigma) at 37° C. for 48 h for differentiation into adherent, non-dividing macrophages. After activation by PMA, cells were washed and incubated with complete RPMI medium containing stationary phase Leishmania promastigotes (L. major: strain LV39; L. donovani, strain 1S/Cl2D) at a 1:15 parasite-cell ratio. Compounds were added and incubated at 37° C. for 72 h. Cells were then washed with phosphate-buffered saline (PBS), fixed for 30 minutes with 4% formaldehyde, rinsed again with PBS, stained for 2 h with 4′,6′-diamidino-2-phenylindole (DAPI 300 nM) and finally washed with PBS. In a collaborative effort to identify new antileishmanial chemotypes with minimal host cell cytotoxicity, compounds from the Boston University Center for Molecular Discovery (BUCMD) screening collection were assessed in a phenotypic, high content primary screen at the University of California's Center for Discovery and Innovation in Parasitic Diseases (CDIPD) for the ability to inhibit growth of L. donovani intracellular amastigotes infecting THP-1 cells. […] Dose-response testing in L. donovani (both intracellular amastigotes and promastigotes) confirmed concentration-dependent growth inhibition of both morphologies of the parasite at low micromolar EC50 values for both compounds (Table 1).

[2] = tested on: L. major (strain LV39) intracellular amastigotes infecting THP-1 cells; assay: High content intracellular amastigote assay in THP-1 cells (Assay Conditions B); type: cell-based, Leishmania major; details: THP-1 cells; values marked b
Procedure: as §1

[3] = tested on: L. donovani promastigotes (strain 1S/Cl2D); assay: Promastigote assay, CellTiter-Glo (Assay Conditions F); type: cell-based; details: Leishmania donovani; footnote f; read-out: L. donovani promastigotes EC50
Procedure: (§2) Assay Conditions F: Leishmania promastigotes (L. major: strain LV39; L. donovani, strain 1S/Cl2D) were maintained as previously described in PloS Negl Trop Dis (2015) 9(3):e0003588 and Pathogens (2021) 10(5):593) at 28° C. in M199 media supplemented with glutamine, adenosine, folic acid, hemin, HEPES, 10% Fetal Bovine Serum (Sigma-Aldrich, cat. no. F2442) and 1% Penicillin-Streptomycin (Gibco, cat. no. 15140122). For the promastigote assay, we followed the method previously described in PloS Negl Trop Dis (2011) 5(7):e1253. Briefly, promastigotes were incubated with the compounds for 72 h at 27° C., then lysed by adding 50 μL of CellTiter-Glo (Promega) and placed on an orbital shaker for 5 min at room temperature. After lysis, the resulting ATP-bioluminescence was measured using the Analyst HT plate reader (Molecular Devices).

[4] = tested on: L. major promastigotes (strain LV39); assay: as above; type: cell-based; details: Leishmania major; footnote f; read-out: L. major promastigotes EC50
Procedure: as §2

[5] = tested on: THP-1 cells; assay: Host THP-1 cell cytotoxicity in the CDIPD high content screen; type: cell-based, human; details: Homo sapiens, THP-1; 10 μM; footnote b; read-out: THP-1 host cell % growth inhibition at 10 μM
Procedure: as §1

[6] = tested on: L. donovani intracellular amastigotes infecting THP-1 macrophages; assay: GSK intramacrophage L. donovani assay (LD AMMAC, inMac; Assay Conditions C); type: cell-based; details: Leishmania donovani; THP-1 cells; values marked c; read-out: L. donovani amastigotes EC50 (THP-1 cells)
Method in brief: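 EC50 values come from counting amastigotes per infected THP-1 macrophage (AMMAC). Parallel read-outs give percentage of infected cells per well (INFCELL) and a macrophage-number toxicity EC50 (MAC).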

[7] = GSK inMac assay, host cell toxicity readout (LD MAC); type: cell-based, human; details: human; footnote c; read-out: THP-1 Host Cell CC50
Method in brief: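 MAC EC50 reflects THP-1 host cell counts, measured within GSK's inMac L. donovani infection assay that also scores intracellular amastigotes and infected-cell percentage.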

[8] = tested on: L. donovani intracellular amastigotes in B10R cells; assay: UCSD L. donovani infection assay (Assay Conditions D); type: cell-based; details: B10R cells; for L. donovani amastigotes EC75 (B10R cells): footnote d; for EC50: Leishmania donovani, values marked d, read-out: L. donovani amastigotes EC50 (B10R cells)
Method in brief: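 Compounds, either single-point at 10 μM or 10-point 2-fold series (3 technical, 2 biological replicates), were incubated 72 h at 37° C. with B10R host cells co-seeded with day-7 stationary L. donovani promastigotes (20:1). DAPI-stained nuclei imaging yielded intracellular parasite EC50 and host-cell CC50.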

[9] = UCSD infection assay, host cell cytotoxicity (CC50); type: cell-based; details: mouse, B10R host cells infected with L. donovani; footnote d
[10] = tested on: L. major (strain Friedlin) in J774 cells; assay: J774 luciferase infection assay (Assay Conditions E); type: cell-based, Leishmania major; details: values marked e
Procedure: Assay Conditions E: J774 cells (ATCC J774A.1 were grown in DMEM supplemented with 10% Fetal Bovine Serum (FBS) and 1% Penicillin-Streptomycin at 37° C. in 5% CO2. Leishmania parasites expressing luciferase and GFP were grown as described in Front. Cell. Infect. Microbiol (2019) 9:237. J774 cells were seeded in microwell plates at 3×10^5 cells/mL density. Cells were washed with PBS and incubated with complete DMEM medium containing stationary phase Leishmania promastigotes (L. major: strain Friedlin; L. braziliensis, strain BA788) at a 1:10 parasite-cell ratio for 24 h. Cells were washed with PBS. Cells and compounds were incubated for 48 h at 37° C. and 5% C02. Compounds were tested in 8-point 2-fold serial dilution in 4 technical replicates, and 2 biological replicates. After 48 h, OneTiterGlo (Promega) (100 μl) was added to each well. Plates were incubated for 15 min and bioluminescence was measured using a plate reader (Molecular Devices). Effective concentration inducing 75% activity (EC75) was calculated using GraphPad Prism Software (version 9.0).

[11] = tested on: L. braziliensis (strain BA788) in J774 cells; assay: as above; type: cell-based, Leishmania braziliensis; details: footnote e
Method in brief: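 J774A.1 macrophages infected 24 h with luciferase/GFP-expressing stationary-phase promastigotes (L. major Friedlin or L. braziliensis BA788, 1:10 parasite:cell), washed, then exposed 48 h at 37 °C, 5% CO2 to 8-point 2-fold dilutions. OneTiterGlo bioluminescence read; EC75 calculated.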

[12] = tested on: L. braziliensis-infected macrophages; assay: Macrophage (BMDM) infection with L. braziliensis and exposure to CMLDs; type: cell-based, Leishmania braziliensis
Procedure: Leishmania braziliensis (MIHOM/BR/00/BA788) and L. major (Friedlin) promastigotes were maintained in Schneider's medium (SIGMA) supplemented with 10% heat-inactivated FCS, 100 U/ml penicillin, 100 μg/ml streptomycin (all from Invitrogen).
BMDM were obtained as described above. Cells were resuspended in DMEM medium supplemented with 100 U/mL penicillin, […] streptomycin, and 10% heat-inactivated Fetal Bovine Serum (all from Invitrogen) and seeded at a density of 3×10^5 cells per well in 24-well culture plates. Monolayers received 3×10^6 cells L. braziliensis promastigotes and were incubated at 37° C. in supplemented DMEM medium for 24 h. Infected macrophages were then washed to remove non-internalized parasites. Compounds CMLD 011128, CMLD010947, CMLD010498, and CMLD011494 were added at different concentrations. After 24 hours, cells were extensively washed, fixed and stained with hematoxylin and eosin (H&E). The number of infected cells and of intracellular amastigotes were counted by optical microscopy in 200 macrophages. Positive controls consisted of cultures treated with Amphotericin B (0.25 μg/mL, Invitrogen). Cultures were performed in quintuplicate. Alternatively, infected macrophages were treated as described, monolayers were extensively washed and the medium was replaced by 0.5 ml of supplemented Schneider medium. Cells were cultured for seven additional days at 26° C., when number of viable promastigotes was determined using hemocytometer.
Results were expressed as the mean percentage reduction of infected cells compared with untreated control wells. Half-maximal effective concentrations (EC50) were determined by sigmoidal regression curves using Prism 7.0 software (GraphPad Software Inc.)

[13] = tested on: L. major-infected murine macrophages; assay: Macrophage infection with L. major and exposure to CMLDs; type: cell-based, Leishmania major
[14] = tested on: macrophages from bone marrow; assay: Cellular viability of macrophages (Cell Titer Glo); type: cell-based, murine; details: 500-1000 nM, 24 h
Procedure: Briefly, macrophages were obtained from bone marrow and seeded at a density of 1×10^6 cells per well in 24-well culture plates. After 2 hours, cells were treated with compounds at two concentrations (500 and 1000 nm) for 24 hours. Cell viability was determined using Cell Titer Glo (Promega), according to manufacturer's instructions. For positive control, pararosaniline chloride was used.

[15] = L. major, only observed at the highest dose (1 μM)

SMILES	EC50 [6]	CC50 [7]	L. donovani amastigotes EC75 (B10R cells) [8]	CC50 at 72 h [9]	L. major amastigotes EC75 (J774 cells) [10]	L. braziliensis amastigotes EC75 (J774 cells) [11]	EC50 [8]	further results
COc1ccc(N2C(=O)c3[nH]nc(CC(C)C)c3C2c2ccccc2)cc1 (stereo not shown) [CMLD007427]	3.2 µM	31.6 µM	1.1 µM	–	–	–	–	L. donovani amastigotes % GI at 10 μM (THP-1 cells) [1]: 100.0%; L. major amastigotes EC75 (THP-1 cells) [2]: 1.7^b μM; EC50 [3]: 2.4 µM; EC50 [4]: 4.2 µM; inhibition at 10 µM [5]: 11%
COc1ccc(N2C(=O)c3[nH]nc(CC(C)C)c3C2c2ccc(F)cc2)cc1 (stereo not shown) [CMLD007431]	2.5 µM	> 20 µM	1.0 µM	–	–	–	–	L. donovani amastigotes % GI at 10 μM (THP-1 cells) [1]: 99.0%; L. major amastigotes EC75 (THP-1 cells) [2]: 1.3^b μM; EC50 [3]: 2 µM; EC50 [4]: 4.4 µM; inhibition at 10 µM [5]: 13%
COc1ccc(N2C(=O)c3[nH]nc(CC(C)C)c3C2c2ccc(F)cc2)cc1F (stereo not shown) [CMLD010884]	1.3 µM	25.1 µM	0.8 µM	20 µM	7.2^e μM	>10 µM	–	–
COc1ccc(N2C(=O)c3[nH]nc(CC(C)C)c3C2c2ccccc2Cl)cc1 (stereo not shown) [CMLD010893]	1.3 µM	20 µM	0.3 µM	6.31 µM	8.3^e μM	>10 µM	–	–
CC(C)Cc1n[nH]c2c1C(c1ccc(F)cc1)N(c1ccc3c(c1)OCO3)C2=O (stereo not shown) [CMLD010901]	0.6 µM	25.1 µM	0.4 µM	12.6 µM	6.0^e μM	8.7 µM	–	–
Cc1cc(F)ccc1C1c2c(CC(C)C)n[nH]c2C(=O)N1c1ccc2ncnn2c1 (stereo not shown) [CMLD010948]	–	> 20 µM	1.1 µM	–	–	5.5 µM	0.9 µM	leishmanicidal effect on L. braziliensis infection in vitro [12]: reduces L. braziliensis infection; number of amastigotes per 100 macrophages ([12]; L. braziliensis, 24 h exposure): significant decrease; percentage of infected macrophages ([12]; L. braziliensis, 24 h exposure): significant decrease; EC50 ([12]; Leishmania braziliensis, Macrophage, 24 h exposure, percentage of infected macrophages, read-out: EC50 against L. braziliensis-infected macrophages): > 5 µM; L. major infection in vitro [13]: reduce L. major infection; number of intracellular amastigotes [13, 15]: significant decreased; percentage of infected cells [13, 15]: significant decreased; cell viability of macrophages [14]: did not change cell viability
COc1ccc(N2C(=O)c3[nH]nc(CC(C)C)c3[C@@H]2c2ccc(F)cc2)cc1 [CMLD011128]	0.8 µM	> 20 µM	0.5 µM	–	–	7.5 µM	–	leishmanicidal effect on L. braziliensis infection in vitro [12]: did not show leishmanicidal effects; percentage of infected macrophages ([12]; L. braziliensis, 24 h exposure): did not decrease
CC(C)Cc1n[nH]c2c1C(c1ccccc1Br)N(c1ccc(N(C)C)cc1)C2=O (stereo not shown) [CMLD011554]	–	5.7 µM	0.1 µM	6.31 µM	5.2^c μM	2.9 µM	0.1 µM	–
Cc1cc(F)ccc1C1c2c(CC(C)C)n[nH]c2C(=O)N1c1ccc(N(C)C)cc1 (stereo not shown) [CMLD011561]	–	7.5 µM	0.1 µM	7.94 µM	1.9^e μM	2.1 µM	0.1 µM	–
COc1ccc(N2C(=O)c3[nH]nc(CC(C)C)c3C2c2ccc(F)cc2C)cc1F (stereo not shown) [CMLD011562]	–	10.9 µM	0.2 µM	10 µM	2.7^e μM	5.2 µM	0.2 µM	–
Cc1cc(F)ccc1C1c2c(CC(C)C)n[nH]c2C(=O)N1c1ccc2c(c1)OCO2 (stereo not shown) [CMLD011564]	–	12.1 µM	0.1 µM	12.6 µM	1.4^e μM	4.9 µM	0.1 µM	–
